From publication PMC7156724, “Potent BRD4 inhibitor suppresses cancer cell-macrophage interaction” (Nature Communications, 2020)
Values joined by “and” are separate entries in the source; they are usually repeats but may differ in a detail not shown here. Equal entries are not always repeated.

Experiments:
H526 SCLC tumors = test: H526 SCLC xenograft tumor growth; assay type: in vivo, mouse; details: for Tumor volume: Fig.3a, n=6, individual animals
Text: PO, oral administration; QD, once daily; BID, twice daily. b–d Tumor growth curves for A2780 ovarian tumor (n = 5) (b), TMD8 large B cell lymphoma (n = 6) (c), and B16F10 melanoma (n = 5) (d) bearing mice treated with the indicated compounds once daily for 11-21 days. e, f Tumor growth curves for A375 melanoma (n = 6) (e), and patient-derived xenograft (PDX) of melanoma (n = 5) (f) bearing mice treated with the indicated compounds once daily (5 days on, 2 days off) for 21 days. For d–f, NHWD-870 used is NHWD-870-HCl synthesized using Suzuki coupling route. Data are presented as mean ± SEM in (a, b, d, f) and mean + SEM in (c, e). p values were calculated using two-tailed, unpaired t tests. *p < 0.05; **p < 0.01; ***p < 0.001. Source data are provided as a Source Data file.
4–6 weeks old female BALB/c nude mice were used for most experiments, with the exception of 6–8 weeks old female C57BL/6 mice were used for B16F10 experiments, and 6–8 weeks old male BALB/c nude mice and SD rats were used for pharmacokinetic experiments. All animals were purchased from Shanghai SIPPR-Bk Lab Animal Co., Ltd. All animals were housed under a regimen of 12 h light/12 h dark cycles and specific pathogen-free conditions. 5×10^6 NCI-H526, ES-2, MDA-MB231, A2780, A375, B16F10, and TMD-8 cells (0.1 ml) were injected subcutaneously into female nude mice. The melanoma patient-derived xenograft model was derived from a human melanoma sample (BRAF, NARS and NF1 wild type, and p53 mutant) removed from a patient in Xiangya Hospital. Surgically removed tumor fragments were implanted subcutaneously into female NSG mice. When the tumors grew to ~1000 mm^3, they were harvested and cryopreserved or immediately re-implanted for expansion or experiments. Mouse body weight and tumor sizes were measured every 3 days. Once the tumors grew to 150–200 mm^3, mice were treated with the compounds as described in the Figures. 1 × 10^6 A2780 cells (1 ml) were injected into the abdominal cavity of nude mice. Ascitic volume and tumor weight were measured by an electronic balance. All the procedures were evaluated and approved by the Institutional Animal Care and Use Committee of Central South University and Yale University.

CSF1 mRNA = test: RT-qPCR of CSF1 mRNA in mouse tumor cells (ID8, B16); assay type: cell-based; details: ID8, 50 nM, 48 h
[1] = Metabolic stability assay, mouse liver microsomes; details: for Remaining in mouse liver microsomes (Sup Fig.6a): in % (unit assumed)
Procedure: 7. Metabolic stability assay. The metabolic profile of NHWD-870 was determined using mouse, rat, dog, monkey, and human liver microsomes using the protocols […]
No. Compound ID Exat Mass Stock Conc.
1) 100 mM potassium phosphate buffer, PH7.4; 2) 10mM MgCI2
1) Intermediate solution: Dilute 5 μL of compound or control from stock solution (10 mM) with 45 uL DMSO,then mixed with 450 μL 1:1 Methanol/Water (Conc.: 10 0 […]
2) Working solution: Dilute 50 μL from intermediate solution with 450 μL 100 mM potassium phosphate buffer (Conc.: 10 μM, 4.5%MeOH)
(3) NADPH regenerating system (final Isocitric dehydrogenase conc.= 1 unit/mL at […]
1) β-Nicotinamide adenine dinucleotide phosphate, Vendor: sigma Cat. No. N0505
2) Isocitric acid, Vendor: Sigma Cat. No. I1252
3) Isocitric dehydrogenase, Vendor: sigma Cat. No. I2002
(4) Liver microsome solution preparation (final concentration o f 0.5 mg protein/mL) […]
Cold ACN including 100 ng/mL Tolbutamide and 100 ng/mL Labetalol as internal […]
1) Add 10 μL compound or control working solution/well to all plates (T0, T5, T10, T20, T30, T60, NCF60) except matrix blank.
2) Dispense 680 μL/well microsome solution to 96-well plate as reserv oir according to […]
plate map. Then add 80 μL/well to every plate by Apricot, incubate the mixture of microsome solution and compound at 37℃ for about 10 min.
3) Add 10 μL 100 mM potassium phosphate buffer/well to NCF60, incubate at 37℃, […]
4) After pre-warming, dispense 90 μL/well NADPH regenerating system to 96-well plate as reservoir according to the plate map. Then add 10 μL/well to every plate by Apricot to start reaction.
5) Incubate at 37℃, start timer 2.
6) Add 300 (μL/well) stop solution (cold in 4℃, including 100 ng/mL Tolbutamide and 100 ng/mL Labetalol) to terminate the reaction.
7) The sampling plates are shaked for approx 10 min.
8) Samples are centrifuged at 4000 rpm for 20 min under 4℃.
9) While centrifuging, load 8×new 96-well plate with 300 μL HPLC water, then transfer 100 μL supernatant, mixed for LC/MS/MS.
Use equation of first order kinetics to calculate t1/2 and Clin t(mic): […]
Equation of first order kinetics: […]

[2] = mouse, liver microsomes, pH 7.4

**Q.** Which results are given for `Cc1nnn(C)c1-c1cnc2c3c4cnn(C)c4ccc3n([C@H](c3ccccc3)C3CCOCC3)c2c1` [NHWD-870]?
**A.** Tumor volume (H526 SCLC tumors; 0.75mg/kg p.o. QD x 21D, day 0): 192.244 mm^3 and 263.88 mm^3 and 212.226 mm^3 and 157.172 mm^3 and 251.256 mm^3 and 74.1662 mm^3; Tumor volume (H526 SCLC tumors; 0.75mg/kg p.o. QD x 21D, day 3): 395.966 mm^3 and 556.678 mm^3 and 654.987 mm^3 and 201.421 mm^3 and 423.505 mm^3 and 90.8277 mm^3; Tumor volume (H526 SCLC tumors; 0.75mg/kg p.o. QD x 21D, day 7): 723.612 mm^3 and 1124.37 mm^3 and 964.914 mm^3 and 402.947 mm^3 and 655.847 mm^3 and 216.235 mm^3; Tumor volume (H526 SCLC tumors; 0.75mg/kg p.o. QD x 21D, day 10): 1123.82 mm^3 and 1337.09 mm^3 and 1219.11 mm^3 and 614.795 mm^3 and 939.345 mm^3 and 324.637 mm^3; Tumor volume (H526 SCLC tumors; 0.75mg/kg p.o. QD x 21D, day 14): 1169.07 mm^3 and 1508.45 mm^3 and 1544.25 mm^3 and 755.744 mm^3 and 1018.31 mm^3 and 369.016 mm^3; Tumor volume (H526 SCLC tumors; 0.75mg/kg p.o. QD x 21D, day 17): 1563.43 mm^3 and 1842.12 mm^3 and 2108.97 mm^3 and 937.093 mm^3 and 1199.84 mm^3 and 528.17 mm^3; Tumor volume (H526 SCLC tumors; 0.75mg/kg p.o. QD x 21D, day 20): 1882.72 mm^3 and 1980.4 mm^3 and 2365.8 mm^3 and 1110.57 mm^3 and 1230.51 mm^3 and 727.098 mm^3; Tumor volume (H526 SCLC tumors; 1.5mg/kg p.o. BID x 21D, day 0): 109.221 mm^3 and 224.83 mm^3 and 299.894 mm^3; Tumor volume (H526 SCLC tumors; 1.5mg/kg p.o. BID x 21D, day 3): 144.898 mm^3 and 505.755 mm^3; Tumor volume (H526 SCLC tumors; 1.5mg/kg p.o. BID x 21D, day 7): 197.484 mm^3 and 503.899 mm^3; Tumor volume (H526 SCLC tumors; 1.5mg/kg p.o. BID x 21D, day 10): 131.255 mm^3 and 391.019 mm^3; Tumor volume (H526 SCLC tumors; 1.5mg/kg p.o. BID x 21D, day 14): 62.3145 mm^3 and 300.826 mm^3; Tumor volume (H526 SCLC tumors; 1.5mg/kg p.o. BID x 21D, day 17): 47.429 mm^3 and 191.773 mm^3; Tumor volume (H526 SCLC tumors; 1.5mg/kg p.o. BID x 21D, day 20): 26.6114 mm^3 and 100.415 mm^3 and 135.956 mm^3; Tumor volume (H526 SCLC tumors; 1.5mg/kg p.o. QD x 21D, day 0): 70.0321 mm^3 and 190.911 mm^3 and 142.166 mm^3 and 225.589 mm^3 and 289.503 mm^3 and 248.923 mm^3; Tumor volume (H526 SCLC tumors; 1.5mg/kg p.o. QD x 21D, day 3): 54.6804 mm^3 and 344.715 mm^3 and 214.258 mm^3 and 388.716 mm^3 and 680.326 mm^3 and 337.153 mm^3; Tumor volume (H526 SCLC tumors; 1.5mg/kg p.o. QD x 21D, day 7): 52.3406 mm^3 and 448.169 mm^3 and 304.6 mm^3 and 593.496 mm^3 and 1004.88 mm^3 and 603.12 mm^3; Tumor volume (H526 SCLC tumors; 1.5mg/kg p.o. QD x 21D, day 10): 65.7752 mm^3 and 568.076 mm^3 and 360.126 mm^3 and 706.593 mm^3 and 1344.39 mm^3 and 669.797 mm^3; Tumor volume (H526 SCLC tumors; 1.5mg/kg p.o. QD x 21D, day 14): 53.8674 mm^3 and 610.408 mm^3 and 386.917 mm^3 and 812.577 mm^3 and 1371.12 mm^3 and 772.943 mm^3; Tumor volume (H526 SCLC tumors; 1.5mg/kg p.o. QD x 21D, day 17): 48.5889 mm^3 and 810.7 mm^3 and 443.445 mm^3 and 889.286 mm^3 and 1654.72 mm^3 and 1027.16 mm^3; Tumor volume (H526 SCLC tumors; 1.5mg/kg p.o. QD x 21D, day 20): 34.4047 mm^3 and 640.677 mm^3 and 402.424 mm^3 and 852.013 mm^3 and 1472.9 mm^3 and 894.82 mm^3; effect on tumor growth (H526 SCLC tumors; H526 SCLC, oral, 3 mg/kg per day or 1.5 mg/kg twice per day, 21 days): regressed established H526 SCLC tumors; relative CSF1 mRNA level (CSF1 mRNA): 0.0037 and 0.00425 and 0.0051; Remaining (T=60min) ([1]; mouse liver microsomes): 36.2%; Remaining (*NCF=60min) ([1]; mouse liver microsomes, no cofactor): 70.1%; CLint scaled at 1 µM [1, 2]: 139 mL/min/kg; half-life at 1 µM [1, 2]: 39.4 min; microsomal CLint at 1 µM ([1]; mouse, microsomes, pH 7.4): 35.2 µL/min/mg; Remaining in mouse liver microsomes (Sup Fig.6a) ([1]; time 0): 100; Remaining in mouse liver microsomes (Sup Fig.6a) ([1]; time 5): 95.208; Remaining in mouse liver microsomes (Sup Fig.6a) ([1]; time 10): 82.243; Remaining in mouse liver microsomes (Sup Fig.6a) ([1]; time 20): 62.59; Remaining in mouse liver microsomes (Sup Fig.6a) ([1]; time 30): 51.73; Remaining in mouse liver microsomes (Sup Fig.6a) ([1]; time 60): 36.198
